# Reference: patent US9155790B2, “Methods and compositions for modulating ocular damage” (University of Lousiville Research Foundation, Inc., priority 2010, dated 2015)
# “Also recorded” adds a separate entry of the source.
# Key:
# C57BL/6 mice [1] = assay: Sodium iodate chemical RPE debridement model of geographic atrophy; assay type: in vivo
# Protocol: (§1) Another group of animals received MIF-inhibitor 6 days after laser treatment to determine the effect of MIF-neutralization on established CNV. RPE loss was also mimicked in twelve C57BL/6 mice by patchy debridement of RPE using intraperitoneal sodium iodate injection (25 mg/kg). Seven days later, animals received the subtenon MIF inhibitor and RPE resurfacing was determined on day 21 by morphometric image analysis. In all experiments, MIF^−/− animals and wild type animals that received the solvent (DMSO/Corn oil) and/or PBS were used as controls.
# Immunostaining for RPE65, vimentin, E-cadherin, and N-cadherin was used to identify and characterize RPE differentiation.
# Sodium iodate was employed for chemical debridement of RPE to mimic geographic atrophy. Mice received NalO3 (25 mg/kg) intraperitoneally followed by subtenon injection of Compound 1 (500 μg in 5 μL) on day 7. Mice were sacrificed on Day 21 and the surface coverage by RPE cells was determined.
# C57BL/6 mice [2] = assay: Proliferative vitreoretinopathy (PVR) model, surgically induced retinal detachment in mice; assay type: in vivo; conditions: 500 μg in 5 μl subtenon on days 0 and 5; light microscopy day 10
# Protocol: The effect of MIF inhibition on EMT was further tested in vivo using an animal model of PVR. Six (6) adult C57BL/6 mice were anesthetized with pentobarbital sodium (70 mg/kg i.p.) and a linear incision was made in the cornea. The lens was removed and a tear was created in the peripheral retina using a 32G needle. The corneal incision was then sutured with 10-0 nylon.
# The experimental group received 500 μg/in 5 μl of a MIF inhibitor (4-iodo-6-(2-fluorophenyl)pyrimidine; Compound 1) in the posterior subtenon space on Days 0 and 5, whereas control animals received the solvent. Animals were sacrificed on Day 10 and light microscopy was used to assess the presence and extent of PVR. MIF^−/− animals (n=3) were also used as control.
# In order to test the safety and efficacy of MIF neutralization in vivo, the model disclosed in Saika et al., 2004 was employed.
# Briefly, retinal detachment was created in three C57BL6 mice. Animals underwent a lensectomy/vitrectomy procedure under ketamine/xylazine anesthesia. These procedures were done through a central slit corneal incision. After the completion of the procedure, a tear was created in the peripheral retina under the microscope and the sensory retina was detached. Next, the cornea was closed with a 10-0 nylon suture and each animal was returned to its cage. […]
# Brown Norway rats = assay: PVR / retinal detachment model in Brown Norway rats; assay type: in vivo
# Protocol: Briefly, retinal detachment was created in three C57BL6 mice. Animals underwent a lensectomy/vitrectomy procedure under ketamine/xylazine anesthesia. These procedures were done through a central slit corneal incision. After the completion of the procedure, a tear was created in the peripheral retina under the microscope and the sensory retina was detached. Next, the cornea was closed with a 10-0 nylon suture and each animal was returned to its cage. The experimental group received 500 μg/in 5 μl of the MIF inhibitor 4-(2-fluorophenyl)-6-iodopyrimidine (Compound 1) in the posterior subtenon space on days 0 and 5, whereas control animals received the solvent (i.e., a 1:1 mixture of DMSO and corn oil). Animals were sacrificed on day 10 and light microscopy was used to assess the presence and extent of PVR. MIF^−/− knockout animals (n=3) were also used as a control.
# Similar experiments were also repeated using Brown Norway rats. […] However, in control animals (FIG. 5 I) numerous RPE cells became migratory in the vitreous and started to form epiretinal membranes
# C57BL/6 mice [3] = assay: Laser-induced subretinal choroidal neovascularization (CNV) in mice; assay type: in vivo; conditions: for CNV yield (percent of the spots with CNV): read 10 days after laser
# Description: In order to test the efficacy of MIF inhibitors to prevent subretinal or intraretinal neovascularization, subretinal choroidal neovascularization (CNV) was induced in C57BL/6 mice (n=3; 6 eyes/per experimental group) using a double-frequency YAG laser (532 nm). Laser parameters were 600 mW of power, 0.1 sec duration, and a spot size of 50 micrometers. Approximately 8-12 spots per eye were placed. One group of animals received 500 micrograms of 4-(2-fluorophenyl)-6-iodopyrimidine (Compound 1) into the posterior subtenon space through a 32-G needle 24 hours before laser application. Compound 1 was dissolved in 1:1 mixture of DMSO and corn oil solvent. The injection volume was 5 microliters.
# Another group of animals received the drug six days after the laser photocoagulation when subretinal neovascularization is at its maximum growth. This scenario exemplified the use of MIF inhibitors (including, but not limited to Compound 1) in the treatment of active wet age-related macular degeneration (AMD). The two […] controls received either PBS or DMSO:corn oil mixture into the subTenon space. MIF^−/− animals (i.e., mice with a homozygous knock out of the MIF gene) were also taken as the negative control.
# Ten days after the laser photocoagulation animals were perfused with high molecular weight dextran (2 megadalton)-conjugated fluorescein under deep anesthesia and then sacrificed. Choroidal neovascularization (CNV) yield (=percent of the spots with CNV) was determined under a fluorescent microscope.
# The effect of MIF neutralization on retinal pigment epithelial (RPE) differentiation and wound healing properties in animal models of chemical RPE debridement and laser-induced choroidal neovascularization (CNV) was tested. CNV was induced in C57BL/6 mice (n=18) using a double-frequency YAG laser (532 nm; 600 mW; 0.1 sec; 50 μm; 8-12 spots/eye). The experimental group (n=6) received 500 μg/in 5 μl of a MIF inhibitor (4-iodo-6-(2-fluorophenyl)pyrimidine; Compound 1) in the posterior subtenon space 24 hours before laser application. Ten (10) days later, animals were sacrificed and induced CNV (i.e., yield) was determined.
# as §1
# primary human RPE cells = assay: EMT of cultured primary human RPE cells (morphology and qPCR); assay type: cell-based
# Protocol: To determine whether MIF inhibition can prevent the formation proliferative vitreoretinopathy (PVR) by inhibiting epithelio-mesenchymal transformation (EMT) of RPE, primary human RPE cells from two young donors were plated on tissue-culture plastic and maintained in DMEM H16 supplemented with 10% FBS and a MIF inhibitor (4-IPP; 25-50 μM) for 3 weeks. Control cells were exposed only to the solvent (DMSO/Corn oil).
# Morphology and qPCR for microphthalmia transcription factor (MITF), plasminogen activator inhibitor type-1 (PAI-1), vimentin, and N-cadherin were used to assay for the presence of EMT.
# Human RPE cells were isolated freshly (<24 hours) from human donor eyes. Harvested RPE cells were cultured on tissue-culture plates. 25 μM of 4-IPP, a small molecule antagonist of MIF, was added to the culture medium every other day. Untreated wells were taken as control. 21 days later, cells were photographed and RNA was isolated for qPCR analyses.
# [4] = 25 μM every other day, 21 days, qPCR
# [5] = 25-50 μM for 3 weeks, qPCR vs control
structure (smiles),measurement,setting,value
"Fc1ccccc1-c1cc(I)ncn1 [Compound 1, 4-(2-fluorophenyl)-6-iodopyrimidine]",differentiation of proliferating RPE cells (immunostaining),"C57BL/6 mice [1]; MIF-neutralized animals, RPE65, vimentin, E-cadherin, N-cadherin staining",maintained differentiated cuboidal morphology and expressed E-cadherin and RPE-65
same,surface coverage by RPE cells vs vehicle (FIG. 7),"C57BL/6 mice [1]; NaIO3 25 mg/kg i.p., 500 μg in 5 μL subtenon on day 7, day 21",statistically significant greater surface coverage
same,surface coverage by RPE cells,"C57BL/6 mice [1]; sodium iodate 25 mg/kg i.p., subtenon MIF inhibitor on day 7, morphometric image analysis on day 21",93.8±6.3%
same,"RPE resurfacing of the denuded Bruch's membrane (FIGS. 8, 9)","C57BL/6 mice [1]; three weeks after partial destruction of RPE cells, vs vehicle","proliferated at a higher rate, resurfaced the Bruch's membrane, and formed an epithelial monolayer; also recorded: better resurfacing of the denuded Bruch's membrane with RPE cells; also recorded: RPE cells established a monolayer in many places; also recorded: proliferated at a higher rate; resurfaced the Bruch's membrane and formed an epithelial monolayer"
same,RPE cell proliferation (PCNA staining),"C57BL/6 mice [1]; vs vehicle control mice, FIG. 10A",increased cell proliferation; also recorded: higher proliferation of the RPE cells
same,apoptotic cell death (TUNEL staining),"C57BL/6 mice [1]; vs vehicle control mice, FIG. 10B",decreased apoptotic cell death
same,RPE cell layering / morphology in the subretinal space,C57BL/6 mice [2],remained as a monolayer; also recorded: maintained an epitheloid monolayer in the subretinal space
same,formation / contraction of peri-retinal membranes (PVR),C57BL/6 mice [2],significantly inhibited the formation of peri-retinal membranes; also recorded: No physical distortion related with the contraction of periretinal membranes was noted
same,RPE morphology and invasion of subretinal / intravitreal space,"Brown Norway rats; Brown Norway rats, FIG. 5H, vs control",maintained their epitheloid morphology and did not invade the subretinal and/or intravitreal space
same,preservation of photoreceptor cells in the detached retina,Brown Norway rats; FIG. 6A vs vehicle control FIG. 6B,better preservation of the photoreceptor cells in the detached retina; also recorded: better preserved
same,outer nuclear layer thickness,"Brown Norway rats; detached retina, FIG. 6A vs controls",thicker outer nuclear layer
same,CNV yield (percent of the spots with CNV),"C57BL/6 mice [3]; 500 μg in 5 μl posterior subtenon, 24 hours before laser (pre-laser)",10.7%
same,CNV yield (percent of the spots with CNV),"C57BL/6 mice [3]; 500 μg subtenon 6 days after laser (post-laser, established CNV)",12.9%
same,RPE growth over the laser spot,C57BL/6 mice [3]; histology / fluorescence microscopy of laser spots,RPE cells proliferated to cover the spot; also recorded: RPE proliferated over the laser spot and sealed it off from neovascularization; also recorded: proliferate over the laser spot and seal it off from neovascularization
same,occurrence of CNV (FIG. 1),C57BL/6 mice [3]; post-laser application (5th bar),significantly suppressed the occurrence of CNV
same,occurrence of CNV (FIG. 1),C57BL/6 mice [3]; pre-laser application (4th bar),significantly suppressed the occurrence of CNV
"Ic1cc(-c2ccccc2)ncn1 [Compound 4-IPP, 4-iodo-6-phenylpyrimidine]","MITF mRNA level, control lower than inhibitor-treated cells",primary human RPE cells; [4],1.6 fold
same,"N-cadherin mRNA level, control higher than inhibitor-treated cells",primary human RPE cells; [4],43.2 fold
same,"PAI-1 mRNA level, control higher than inhibitor-treated cells",primary human RPE cells; [4],19.7 fold
same,"vimentin mRNA level, control higher than inhibitor-treated cells",primary human RPE cells; [4],8.5 fold
same,cell number and morphology of cultured human RPE cells (FIG. 4A),"primary human RPE cells; 25 μM every other day, 21 days, vs control wells","significantly fewer in number, were uniformly pigmented, retained a classical cuboidal epithelial morphology"
same,increase in MITF mRNA level,primary human RPE cells; [5],1.6 ×
same,reduction of N-cadherin mRNA level,primary human RPE cells; [5],43.2 ×
same,reduction of PAI-1 mRNA level,primary human RPE cells; [5],19.7 ×
same,reduction of vimentin mRNA level,primary human RPE cells; [5],8.5 ×
same,cell number and morphology of cultured human RPE cells,"primary human RPE cells; 25-50 μM for 3 weeks, vs solvent control",significantly fewer in number but maintained their typical cuboidal epithelial morphology
